Reference: patent US20180353445A1, “METHODS AND COMPOSITIONS RELATING TO PROTEASOME INHIBITOR RESISTANCE” (Whitehead Institute for Biomedical Research, priority 2017, published 2018)

How the values were obtained:
[1] = system: relapsed multiple myeloma; assay: Analysis of phase 2/3 bortezomib clinical trials in relapsed multiple myeloma stratified by 19S subunit expression; assay type: in vivo, human
Description: (All patients were treated with bortezomib.) (FIG. 15B) Reduced expression of 19S subunit expression is correlated with poor tumor suppression response to bortezomib in patients with relapsed myeloma enrolled in phase 2 and phase 3 clinical trials of bortezomib. Plotted is the time to relapse for patients that relapsed that were either treated with bortezomib, stratified by reduced expression of at least one subunit of the 19S proteasome complex or the dexamethasone treated group as a control.
We analyzed gene expression data from 135 patients with relapsed multiple myeloma who participated in Phase II or III trials of bortezomib (˜2007; Mulligan, G., Mitsiades, et al. (2007) Gene expression profiling and correlation with outcome in clinical trials of the proteasome inhibitor hortezomib. Blood 109, 3177-3188) and determined the sigma score for each cancer. […]
Methods details: re-treatment gene expression data from relapsed multiple myeloma patients undergoing clinical trials with bortezomib were downloaded from GSE9782 (34). […] Sigma scores were calculated from all probes. […] P-value was calculated using Wilcoxon test.

[2] = target: β5-subunit of the proteasome (Homo sapiens, UniProt P28074); conditions: cited from earlier work
[3] = system: T47D cells; assay: Combination of ABT-263 or ABT-199 with proteasome inhibitors, T47D cells with reduced PSMD2; assay type: cell-based, human; conditions: T47D cells with reduced PSMD2, 72 hours
Text: FIG. 18: Plots showing effect of various concentrations of ABT-263 (upper panels) or ABT-199 (lower panels) in combination with various concentrations of ixazomib un viability of T47D cells with reduced expression of PSMD2 (KB) (right panels) or control cells (left panels). Fold viability refers to the number of viable cells of the indicated type (PSMD2 KD or control cells) after culture in the presence of the test compounds (ixazomib +ABT-263 or ixazomib +ABT-199) divided by the number of viable cells of that type after culture in the absence of the test compounds. The concentrations of ABT-263 or ABT-199 tested are shown in the legend on the right side of each panel. If no concentration is listed, the compound was absent. Fold viability of control cells cultured in the presence of ixazomib alone (i.e., in the absence ABT-263 or ABT-199) is also shown in the panels showing effect of ixazomib +ABT-263 or ixazomib +ABT-199 on PSMD2 KD cells. […]
FIGS. 21A-21C: (FIG. 21A) Plot showing synergy of ABT-263 with ixazomib in T47D cells with reduced expression of PSMD2. […] The y-axis on each plot is the calculated EC50 in micromoles for either ixazomib or bortezomib in the presence of sublethal doses of ABT-263 or A.BT-199 as indicated. Compounds were added to the cells at the same time and cell viability was measured 72 hours later.

Row | SMILES | time to progression of patients with reduced 19S subunit expression vs patients without ([1]; 34 patients, p-value=0.0086) | effectiveness in patients with reduced expression of 19S proteasome subunit(s) ([1]; vs dexamethasone control) | potency of inhibition of the β5-subunit [2] | combination effect with bortezomib [3] | combination effect with ixazomib [3]
1 | CC(C)C[C@H](NC(=O)[C@H](Cc1ccccc1)NC(=O)c1cnccn1)B(O)O [bortezomib] | shortened time to progression | no significant effectiveness over the dexamethasone control | low nanomolar potency |  | 
2 | CC1(C)CCC(c2ccc(Cl)cc2)=C(CN2CCN(c3ccc(C(=O)NS(=O)(=O)c4ccc(N[C@H](CCN5CCOCC5)CSc5ccccc5)c(S(=O)(=O)C(F)(F)F)c4)cc3)CC2)C1 [ABT-263, navitoclax] |  |  |  | synergy | synergy
